The record followed here is patent US11214561B2, “Histone methyltransferase EZH2 inhibitor, preparation method and pharmaceutical use thereof” (ANCUREALL PHARMACEUTICAL (SHANGHAI) CO., LTD., priority 2017, dated 2022).

One data set concerns Pfeiffer (EZH2 A677G). The data set can be described thus: In vitro 50% growth inhibition (GI50), MTT/CCK8, Pfeiffer cells. It counts as cell-based, Human. The settings on record: Homo sapiens, Pfeiffer, 240 h; Drug treatment for 10 days. From the text: (§1) In the present invention, a representative tumor cell line was selected to determine the cell growth inhibition activity of the present compound. Cell culture conditions and methods were in accordance with the requirements for each cell lines. The cells were subcultured in vitro for less than 3 generations each time, and as required, monoclone purification and identification of cell lines could be carried out.
(§2) The cell culture media used were RPMI1640 (Gibco) comprising 5-20% of fetal bovine serum (Gibco), 1% of double-antibiotic and 2 mM of glutamine.
(§3) Suspension culture cells were collected by centrifugation (1700 rpm, 3 minutes), and the supernatant was discarded and the cells were counted. According to each cell growth cycle, different concentrations of cells were prepared (1-10×10^4 cells per ml) and added to 96-well plates (Corning) with 100 μl per well, and then incubated overnight at 37° C., 5% CO2. The next day, the test compound was added to the cultured cells (2 wells in parallel). The final concentration of the solvent was less than 1/1,000. The cells were further cultured for 6 to 12 days and assayed by MTT.
(§4) The compound was stored at a concentration of 10 mM at −20° C. and diluted to two-fold or 10-fold series prior to use.
(§5) For the suspension culture cells, CCK8 was directly added to 10% of the final concentration. The cells were continually incubated for […].
(§6) The experiments were repeated 3 times and a statistical analysis of data was conducted.

In a further data set the test system is Karpas-422 (EZH2 Y641N). In words: In vitro 50% growth inhibition (GI50), MTT/CCK8, Karpas-422 cells. It counts as cell-based. The settings on record: Homo sapiens, KARPAS-422, 144 h; Drug treatment for 6 days.
From the text: as §1, §2, §3, §4, §5, §6

A further data set concerns SU-DHL-8 (EZH2 WT). The data set can be described thus: In vitro 50% growth inhibition (GI50), MTT/CCK8, SU-DHL-8 cells. It counts as cell-based. As to conditions: Homo sapiens, SU-DHL-8, 144 h; Drug treatment for 6 days.
From the text: as §1, §2, §3, §4, §5, §6

Data set [1] has as its system EZH2 A677G mutant positive-expressing tumor cell line Pfeiffer. The data set can be described thus: In vivo growth inhibition, Pfeiffer subcutaneous transplantation model. The settings on record: for Tumor volume: 200 mg/kg orally once a day. The text has this:
Test Example 2 Determination of the in vivo growth inhibition activity of the present compounds on EZH2 A677G mutant positive-expressing tumor cell line Pfeiffer NOD/SCID mice were subcutaneously inoculated with human diffuse large cell B lymphoma lymphocyte Pfeiffer (ATCC) expressing EZH2 A677G mutant protein to establish a subcutaneous transplantation model of human B cell lymphoma.
Experimental animals: NOD/SCID mice, female, 9 weeks (weeks of age when tumor cell inoculation), average weight 20.3 g, 18 mice, were purchased from Shanghai Lingchang biotechnology co., Ltd. with animal certificate No.: 2002007656. The breeding environment was SPF grade.
Test samples: the present example compounds 34 (purity: 99.03%) and 35 (purity: 97.6%), solid powder, preserved at −20° C.
Pfeiffer cells were cultured in RPM1640 medium containing 10% of fetal bovine serum. Log-phase Pfeiffer cells were collected and resuspended with PBS to 1×10^8 cells per ml for subcutaneous inoculation in NOD/SCID mice.
All the mice were treated with Co60 irradiation at a dose of 200 rad the day before the inoculation, and 1×10^7 Pfeiffer cells were then subcutaneously inoculated at the right back, and the cells were resuspended in 1:1 PBS and Matrigel (0.1 ml/mouse). When the average tumor volume was 134 mm^3, the mice were randomly grouped according to tumor size. Tumor volume was calculated as: long diameter×short diameter^2/2. The day of tumor cells inoculation was defined as day 0. The test was divided into solvent control group and drug treatment group (compound 34 group and compound 35 group). 6 mice for each group were given orally once a day for a total of 4 weeks. Efficacy was assessed based on relative tumor growth inhibition value (TGI), and safety was assessed based on animal weight change and mortality.
Preparation of test samples: compounds 34 or 35 was weighed and mixed with ultrapure water, and methanesulfonic acid was added for clarification. The PH value was about 1.64 at this moment. 4M NaOH was then added to adjust the PH to 3.5 and bring to volume by ultrapure water, the final concentrations was 20 mg/ml. Determination standard: TGI (%): […].
T/C % refers to the relative value-added rate of tumor, that is, the percentage value of relative tumor volume or tumor weight for the treatment group and the control group at a certain point. T and C were the relative tumor volumes (RTV) of the treatment group and the control group at a specific point, respectively. The calculation formula is as follows: T/C%=TRTV/CRTV*100% TRTV: mean RTV of the treatment group; CRTV: mean RTV of solvent control group; RTV=Vt/V0, V0 was the tumor volume of the animal when grouping, Vt was the tumor volume of the animal after treatment. Statistical analysis: all test results were defined as mean tumor volume±SEM (mean standard error). Tumor volume data of 27 days after the start of treatment were selected for statistical analysis among different groups, and independent sample T test was used to compare whether there were significant differences in tumor volume between the treatment group and the control group. All data were analyzed using SPSS 18.0. P<0.05 was considered as significant difference.

Data set [2] is described as follows: In vivo pharmacokinetics in rats. The settings on record: SD rats. On the procedure: Test Example 4 Study of In Vivo Pharmacokinetics of the Present Compounds in Rats
Male SD rats (Shanghai Sippr-BK Experimental Animal Co., Ltd) were purchased and kept in Shanghai University of Traditional Chinese Medicine animal center (approved by the ethics committee of Shanghai University of Traditional Chinese Medicine) for 7 days. The rats were randomly divided into 4 groups (˜220 g), 3 rats for each group. Animals were administered intravenously (iv) and orally (po). The rats in po group were starved for 12 hours before administration. After administration, blood was collected from the orbital venous plexus at 0 min (before administration), 2 min, 5 min, 15 min, 30 min, 1 h, 2 h, 4 h, 6 h, 8 h and 24 h. About 200 ul of blood was collected at each time point, and were collected in 1.5 ml centrifuge tube containing heparin sodium. The upper blood […] were collected by centrifugation (8000 rpm, 3 min) and stored at −80° C.
Preparation of test samples: 125.0 mg compound 34 or compound 35 was weighed and added with 4 ml ultrapure water, and 25 ul methanesulfonic acid was added with stirring. The mixture was further stirred until clear and transparent (pH ˜3.32). 1 ml of the above solution was added with 4 ml of ultra-pure water to obtain 5 mg/ml of compound 34 or compound 35 solution (pH=3.5).
Dose and mode of administration: single oral dose (100 mpk) and single intravenous dose (5 mpk).
Administration volume: 4 ml/kg (orally), 1 ml/kg (intravenously).
The plasma concentration of the compound was determined by LC-MS/MS (AB scexqtrap@4500 LCMS/MS system). Pharmacokinetic parameters were calculated by WinNonlin (a professional software). The experiment was repeated once.

[3] abbreviates: 200 mg/kg, 27th day after the start of treatment.
Setting [4] is: 200 mg/kg, 27 days after the start of treatment.

Where only a bound is given, the exact number is not on record here.

`C=CC(=O)N1CCC(N(CC)c2cc(-c3ccc(CN4CCOCC4)cc3)cc(C(=O)NCc3c(C)cc(C)[nH]c3=O)c2C)CC1` [Example 35, N-(4,6-dimethyl-2-oxo-1,2-dihydro-pyridin-3-ylmethyl)-5-[(1-acryloyl-piperidin-4-yl)-ethyl-amino]-4-methyl-4′-(morpholin-4-ylmethyl)-[1,1′-biphenyl]-3-carboxamide]: the figures for the GI50 in the data set on Pfeiffer (EZH2 A677G), with Karpas-422 (EZH2 Y641N) and in the data set with SU-DHL-8 (EZH2 WT) were 1 to 10 nM, 10 to 100 nM and more than 1000 nM, respectively. The “body weight during the treatment” value in data set [1] (200 mg/kg dose) is reported as “maintained a stable body weight”. Also, in data set [1] (200 mg/kg dose), the tolerability result is “well tolerated”. Further, the Tumor volume is 134 ± 9 mm^3 in data set [1] (Day 0 after the start of treatment); 324 ± 38 mm^3 in data set [1] (Day 3 after the start of treatment); 681 ± 72 mm^3 in data set [1] (Day 7 after the start of treatment); 635 ± 88 mm^3 in data set [1] (Day 10 after the start of treatment); 710 ± 87 mm^3 in data set [1] (Day 14 after the start of treatment); 751 ± 135 mm^3 in data set [1] (Day 17 after the start of treatment). Besides, the Tumor volume in data set [1] (Day 21 after the start of treatment) stood at 801 ± 152 mm^3; in data set [1] (Day 24 after the start of treatment) it was 1029 ± 193 mm^3; in data set [1] (Day 27 after the start of treatment, listed as Compound 35), 1116 ± 196 mm^3; in data set [1] (Day 27 after the start of treatment, listed as compound 35), 1116 mm^3. Also, the “RTV (x ± S), relative tumor volume” value in data set [1] (setting [3]) amounted to 8.2 ± 1.1. Moreover, in data set [1] (setting [3]), the “T/C (%), relative tumor volume” value turned out to be 57.7%. Further, the “TGI (%), relative tumor volume” value in data set [1] (setting [3]) was 42.3%. The “T/C (%), tumor weight” value in data set [1] (setting [4]) was found to be 51.3%. In data set [1] (setting [4]), this molecule displayed a TGI, tumor weight of 48.7%. In data set [1] (setting [4]), the “Tumor weight (mg) (x ± S)” value turned out to be 580 ± 99 mg. In data set [1] (200 mg/kg, versus solvent control group), the “anti-tumor effect, in words” value was “significant anti-tumor effects”. Moreover, the “bioavailability, in words” value in data set [2] was “good bioavailability”. Besides, the bioavailability – broadly, the share of a dose that reaches the circulation, judged against a reference dose that is usually intravenous – in data set [2] (male, rat, plasma, IV 5 mg/kg, PO 100 mg/kg, methanesulfonic acid aqueous solution) is 39.1%.
